Measured values taken from ChEMBL document CHEMBL5724914, “Linking interpersonal differences in gut microbiota composition and drug biotransformation activity” (2024).

assay: (§1) The drug is tested on WLS-027 corresponding to human gut metagenome with ENA study accession number: PRJEB37062 and ENA sample accession number: ERS12561744 for biotransformation under anaerobic condition. The drug concentrations were measured over 9 timepoints collected between 0 and 24 hours of incubation by liquid-chromatography-coupled mass spectrometry (LC–MS); conditions: 2 µM
Further: call rule not given here.

| Structure (SMILES) | Bacterial Biotransformation |
| --- | --- |
| Cc1nc2n(c(=O)c1CCN1CCC(c3noc4cc(F)ccc34)CC1)CCCC2 [RISPERIDONE] | Compound metabolized |
| COc1ccccc1N1CCN(CC(O)COc2cccc3ccccc23)CC1 (configuration not stated) [NAFTOPIDIL] | Compound NOT metabolized |

assay: as §1, with “Z-010” for “WLS-027”, “to” for “to human gut”, “ERS12561810” for “ERS12561744”; conditions: 2 µM

| Structure (SMILES) | Bacterial Biotransformation |
| --- | --- |
| Cc1nc2n(c(=O)c1CCN1CCC(c3noc4cc(F)ccc34)CC1)CCCC2 [RISPERIDONE] | Compound metabolized |
| COc1ccccc1N1CCN(CC(O)COc2cccc3ccccc23)CC1 (configuration not stated) [NAFTOPIDIL] | Compound NOT metabolized |

assay: as §1, with “Z-002” for “WLS-027”, “rabbit” for “human”, “ERS12561802” for “ERS12561744”; conditions: 2 µM

| Structure (SMILES) | Bacterial Biotransformation |
| --- | --- |
| Cc1nc2n(c(=O)c1CCN1CCC(c3noc4cc(F)ccc34)CC1)CCCC2 [RISPERIDONE] | Compound metabolized |
| COc1ccccc1N1CCN(CC(O)COc2cccc3ccccc23)CC1 (configuration not stated) [NAFTOPIDIL] | Compound NOT metabolized |

conditions: human gut metagenome, 24 h, 2 µM

| Structure (SMILES) | Bacterial Biotransformation |
| --- | --- |
| Cc1nc2n(c(=O)c1CCN1CCC(c3noc4cc(F)ccc34)CC1)CCCC2 [RISPERIDONE] | Compound metabolized |
| COc1ccccc1N1CCN(CC(O)COc2cccc3ccccc23)CC1 (configuration not stated) [NAFTOPIDIL] | Compound NOT metabolized |

assay: as §1, with “Z-026” for “WLS-027”, “to” for “to human gut”, “ERS12561825” for “ERS12561744”; conditions: 2 µM

| Structure (SMILES) | Bacterial Biotransformation |
| --- | --- |
| Cc1nc2n(c(=O)c1CCN1CCC(c3noc4cc(F)ccc34)CC1)CCCC2 [RISPERIDONE] | Compound NOT metabolized |

assay: as §1, with “WLS-039” for “WLS-027”, “ERS12561746” for “ERS12561744”; conditions: 2 µM

| Structure (SMILES) | Bacterial Biotransformation |
| --- | --- |
| Cc1nc2n(c(=O)c1CCN1CCC(c3noc4cc(F)ccc34)CC1)CCCC2 [RISPERIDONE] | Compound metabolized |
| COc1ccccc1N1CCN(CC(O)COc2cccc3ccccc23)CC1 (configuration not stated) [NAFTOPIDIL] | Compound NOT metabolized |

conditions: human gut metagenome, 24 h, 2 µM; remark: another data set of the same source

| Structure (SMILES) | Bacterial Biotransformation |
| --- | --- |
| Cc1nc2n(c(=O)c1CCN1CCC(c3noc4cc(F)ccc34)CC1)CCCC2 [RISPERIDONE] | Compound NOT metabolized |
| COc1ccccc1N1CCN(CC(O)COc2cccc3ccccc23)CC1 (configuration not stated) [NAFTOPIDIL] | Compound NOT metabolized |

conditions: human gut metagenome, 24 h, 2 µM; remark: another data set of the same source

| Structure (SMILES) | Bacterial Biotransformation |
| --- | --- |
| Cc1nc2n(c(=O)c1CCN1CCC(c3noc4cc(F)ccc34)CC1)CCCC2 [RISPERIDONE] | Compound metabolized |
| COc1ccccc1N1CCN(CC(O)COc2cccc3ccccc23)CC1 (configuration not stated) [NAFTOPIDIL] | Compound NOT metabolized |

conditions: human gut metagenome, 24 h, 2 µM; remark: another data set of the same source

| Structure (SMILES) | Bacterial Biotransformation |
| --- | --- |
| Cc1nc2n(c(=O)c1CCN1CCC(c3noc4cc(F)ccc34)CC1)CCCC2 [RISPERIDONE] | Compound metabolized |
| COc1ccccc1N1CCN(CC(O)COc2cccc3ccccc23)CC1 (configuration not stated) [NAFTOPIDIL] | Compound NOT metabolized |

assay: as §1, with “WLS-038” for “WLS-027”, “ERS12561745” for “ERS12561744”; conditions: 2 µM

| Structure (SMILES) | Bacterial Biotransformation |
| --- | --- |
| Cc1nc2n(c(=O)c1CCN1CCC(c3noc4cc(F)ccc34)CC1)CCCC2 [RISPERIDONE] | Compound metabolized |
| COc1ccccc1N1CCN(CC(O)COc2cccc3ccccc23)CC1 (configuration not stated) [NAFTOPIDIL] | Compound NOT metabolized |

conditions: human gut metagenome, 24 h, 2 µM; remark: another data set of the same source

| Bacterial Biotransformation | Structure (SMILES) |
| --- | --- |
| Compound NOT metabolized | COc1ccccc1N1CCN(CC(O)COc2cccc3ccccc23)CC1 (configuration not stated) [NAFTOPIDIL] |

assay: as §1, with “WLS-170” for “WLS-027”, “ERS12561762” for “ERS12561744”; conditions: 2 µM

| Structure (SMILES) | Bacterial Biotransformation |
| --- | --- |
| Cc1nc2n(c(=O)c1CCN1CCC(c3noc4cc(F)ccc34)CC1)CCCC2 [RISPERIDONE] | Compound metabolized |
| COc1ccccc1N1CCN(CC(O)COc2cccc3ccccc23)CC1 (configuration not stated) [NAFTOPIDIL] | Compound NOT metabolized |

assay: as §1, with “Z-012” for “WLS-027”, “to” for “to human gut”, “ERS12561812” for “ERS12561744”; conditions: 2 µM

| Structure (SMILES) | Bacterial Biotransformation |
| --- | --- |
| Cc1nc2n(c(=O)c1CCN1CCC(c3noc4cc(F)ccc34)CC1)CCCC2 [RISPERIDONE] | Compound metabolized |
| COc1ccccc1N1CCN(CC(O)COc2cccc3ccccc23)CC1 (configuration not stated) [NAFTOPIDIL] | Compound NOT metabolized |

conditions: human gut metagenome, 24 h, 2 µM; remark: another data set of the same source

| Structure (SMILES) | Bacterial Biotransformation |
| --- | --- |
| Cc1nc2n(c(=O)c1CCN1CCC(c3noc4cc(F)ccc34)CC1)CCCC2 [RISPERIDONE] | Compound metabolized |
| COc1ccccc1N1CCN(CC(O)COc2cccc3ccccc23)CC1 (configuration not stated) [NAFTOPIDIL] | Compound NOT metabolized |

assay: as §1, with “WLS-098” for “WLS-027”, “ERS12561754” for “ERS12561744”; conditions: 2 µM

| Bacterial Biotransformation | Structure (SMILES) |
| --- | --- |
| Compound NOT metabolized | COc1ccccc1N1CCN(CC(O)COc2cccc3ccccc23)CC1 (configuration not stated) [NAFTOPIDIL] |

assay: as §1, with “Z-011” for “WLS-027”, “mouse” for “human”, “ERS12561811” for “ERS12561744”; conditions: 2 µM

| Structure (SMILES) | Bacterial Biotransformation |
| --- | --- |
| Cc1nc2n(c(=O)c1CCN1CCC(c3noc4cc(F)ccc34)CC1)CCCC2 [RISPERIDONE] | Compound metabolized |
| COc1ccccc1N1CCN(CC(O)COc2cccc3ccccc23)CC1 (configuration not stated) [NAFTOPIDIL] | Compound NOT metabolized |

assay: as §1, with “WLS-007” for “WLS-027”, “ERS12561742” for “ERS12561744”; conditions: 2 µM

| Structure (SMILES) | Bacterial Biotransformation |
| --- | --- |
| Cc1nc2n(c(=O)c1CCN1CCC(c3noc4cc(F)ccc34)CC1)CCCC2 [RISPERIDONE] | Compound metabolized |
| COc1ccccc1N1CCN(CC(O)COc2cccc3ccccc23)CC1 (configuration not stated) [NAFTOPIDIL] | Compound NOT metabolized |

assay: as §1, with “WLS-240” for “WLS-027”, “ERS12561773” for “ERS12561744”; conditions: 2 µM

| Structure (SMILES) | Bacterial Biotransformation |
| --- | --- |
| Cc1nc2n(c(=O)c1CCN1CCC(c3noc4cc(F)ccc34)CC1)CCCC2 [RISPERIDONE] | Compound metabolized |
| COc1ccccc1N1CCN(CC(O)COc2cccc3ccccc23)CC1 (configuration not stated) [NAFTOPIDIL] | Compound NOT metabolized |

conditions: human gut metagenome, 24 h, 2 µM; remark: another data set of the same source

| Structure (SMILES) | Bacterial Biotransformation |
| --- | --- |
| Cc1nc2n(c(=O)c1CCN1CCC(c3noc4cc(F)ccc34)CC1)CCCC2 [RISPERIDONE] | Compound metabolized |
| COc1ccccc1N1CCN(CC(O)COc2cccc3ccccc23)CC1 (configuration not stated) [NAFTOPIDIL] | Compound NOT metabolized |

assay: as §1, with “WLS-010” for “WLS-027”, “ERS12561743” for “ERS12561744”; conditions: 2 µM

| Structure (SMILES) | Bacterial Biotransformation |
| --- | --- |
| Cc1nc2n(c(=O)c1CCN1CCC(c3noc4cc(F)ccc34)CC1)CCCC2 [RISPERIDONE] | Compound metabolized |
| COc1ccccc1N1CCN(CC(O)COc2cccc3ccccc23)CC1 (configuration not stated) [NAFTOPIDIL] | Compound NOT metabolized |
